{
  "source": "patent US20130281497A1",
  "about": "“MACROCYCLIC COMPOUNDS AND METHODS OF TREATMENT” (University of Florida Research Foundation, Inc., priority 2010, published 2013)",
  "key": {"C2C12 cells": {"test_system": "C2C12 cells", "experiment": "mRNA induction of osteoblastogenesis markers and BMPs by quantitative real-time PCR", "format": "cell-based", "conditions": "for ALP mRNA level, fold change relative to the control / BMP-2 mRNA level, fold change relative to the control / BMP-4 mRNA level, fold change relative to the control / BMP-6 mRNA level, fold change relative to the control / BMP-7 mRNA level, fold change relative to the control / BMP-9 mRNA level, fold change relative to the control / OPN mRNA level, fold change relative to the control / RUNX2 mRNA level, fold change relative to the control: 6 days, C2C12 cells, mean ± SD", "description": "Primers were designed using an on-line primer design program (Table 1). (S. Rozen, H. J. Skaletsky, Methods Mol. Biol. 2000, 132, 365-386.) Total RNA was isolated using TRIzol reagent (Life Technologies, MD) according to manufacturer's protocol. The concentration and purity of total RNA were calculated by measuring absorbance at 260 and 280 nm. First strand cDNA was synthesized using 2 μg of total RNA and 1 μM of oligo-dT18 primer and Omniscript Reverse Transcriptase (Qiagen, CA). SYBR green-based quantitative PCR was performed using the Stratagene Mx3000P Real-Time PCR system and Brilliant SYBR Green Master Mix (Stratagene, CA) with 3 μl of first-strand cDNA diluted 1:50 and 20 pmole of primers, according to the manufacturer's protocols. The PCR reaction consisted of three segments. The first segment (95° C. for 10 min) activated the polymerase; the second segment included 3-step cycling (40 cycles) at 94° C. for 40 sec (denaturation), 60° C. for 40 sec (annealing), and 72° C. for 1 min (extension); the third segment was performed to generate PCR product temperature dissociation curves (‘melting curves’) at 95° C. for 1 min, 55° C. for 30 sec, 95° C. for 30 sec. All reactions were run in triplicate, and data were analyzed by the 2^−ΔΔCT method (K. J. Livak, T. D. Schmittgen, Methods 2001, 25, 402-408.). GAPDH was used as the control gene. Significance was determined by Student's t-test with GAPDH-normalized 2^−ΔΔCT values. Differences were considered significant when P<0.05."}, "Runx2": {"test_system": "Runx2", "experiment": "Runx2 luciferase reporter assay (p6xOSE2-luc)", "format": "cell-based", "description": "FIG. 1. depicts activity of compound I (LA-1) and compound 8 (LA-3) on osteoblast differentiation. FIG. 1: (A) The effects of test compounds (up to 500 nM) on osteoblast differentiation were evaluated by ALP staining. (B) The effect of test compounds (up to 50 nM) on osteoblast differentiation were evaluated by ALP staining. MS-275 was used as a positive control. The effects of test compounds on cell viability (C) and RUNX2 activity (D) were evaluated by CCK-8 assay and 6×OSE2-luciferase activity assay, respectively.\nTo measure Runx2 activity, p6×osteoblast-specific cis-acting element (OSE) 2-luc reporter vector was transiently transfected into C2C12 cells that were seeded in a 96-well plate at 5×10^3 cells/well as described previously (Kim et al., J. Cell Biochem. 2004, 9, 1239-1247). After 24 h, medium was replaced with DMEM containing 5% FBS with or without tanshinone IIA and/or BMP-2. After 24 h, the cells were lysed, and luciferase activity was measured using luciferase reporter assay system (Promega) and the Wallac EnVision microplate reader."}, "calvaria bone": {"test_system": "calvaria bone", "experiment": "In vivo bone regeneration model (calvaria bone defects)", "set-up": "species or system rabbits", "description": "All rabbits are anesthetized with an intramuscular dose of 0.1 ml/kg Zoletil (Virbac, France). The head is shaved, and the cutaneous surface is disinfected with povidone iod solution prior to the operation. The calvaria bone is exposed through a skin incision of ˜4 cm in length. Four similar circular bicortical defects (3-mm diameter) are made in the parietal bone using a trephine on a slow-speed electric handpiece, applying 0.9% physiologic saline irrigation. Defects are filled with 10 mg of bone graft substitute, MBCP (Biomatlante, France) soaked with 50 μl of PBS or LA-1. Closure of periosteum and subcutaneous tissues is done with lactomer (Syneture), while the skin is relocated with nylon:polyamide (Syneture). Postoperative antibiotics are administered, e.g., Gentamycin. Rabbits are sacrificed at 4 weeks after surgery."}, "RAW264.7 cells": {"test_system": "RAW264.7 cells", "experiment": "Osteoclastogenesis (RANKL-induced TRAP activity, multinucleated osteoclasts)", "format": "cell-based", "description": "FIG. 2 depicts activity of compound I (LA-1) and compound 8 (LA-3) on osteoclastogenesis. FIG. 2: (A) Effects of test compounds on the RANKL-induced TRAP activity. (B) Effects of test compounds on the RANKL-induced formation of TRAP-positive multinucleated osteoclasts. Effects of test compounds on osteoclast differentiation was evaluated in RAW264.7 cells. RAW264.7 cells were plated in 96-well plates at the density 1×10^3 and then serially diluted LA compounds were treated and incubated until multinucleated osteoclasts were observed under a microscope.\nRAW264.7 cells were purchased from the ATCC and maintained in DMEM supplemented with 10% FBS, 100 U/ml of penicillin, and 100 μg/ml streptomycin with a change of medium every 3 days in humidified atmosphere of 5% CO2 in air at 37° C. For the osteoclast differentiation, RAW264.7 cells were suspended in α-minimal essential medium (α-MEM) supplemented with 10% FBS and 100 ng/ml RANKL (R&D Systems Inc., MN) and plated in a 96-well plate at 1×10^3 cells/well. The next day, cells were treated with largazole and then after an additional 3 days, multinucleated osteoclasts were observed.\nMultinucleated osteoclasts were fixed with 10% formalin for 10 min and ethanol/acetone (1:1) for 1 min, and then stained by Leukocyte Acid Phosphatase Kit 387-A (Sigma, Mo.). […] Absorbance was measured at 410 nm, and TRAP activity was presented as % of control. […]"}, "calvarial bones of mice": {"test_system": "calvarial bones of mice", "experiment": "In vivo murine calvarial bone formation assay", "description": "In vivo bone-forming activity of largazole was evaluated using lyophilized collagen sponges as described previously. […] Three weeks after drug implantation, the calvarias were harvested, fixed in 4% paraformaldehyde, decalcified in 12% EDTA, embedded in paraffin, and sectioned. Sections were deparaffinized through graded xylene washes, […] in a graded series of ethanol washes, and stained with hematoxylin and eosin (H&E)."}},
  "note": "Marks after values point to notes of the source that are not given here.",
  "data": [
    {"smiles": "CCCCCCCC(=O)SCC/C=C/[C@@H]1CC(=O)NCc2nc(cs2)C2=N[C@@](C)(CS2)C(=O)N[C@@H](C(C)C)C(=O)O1", "note": "[Largazole, largazole]", "values": [
      {"measurement": "ALP mRNA level, fold change relative to the control", "setting": "C2C12 cells; largazole 1 nM", "result": "1.85 ± 0.06^a fold"},
      {"measurement": "BMP-2 mRNA level, fold change relative to the control", "setting": "C2C12 cells; largazole 1 nM", "result": "2.15 ± 0.42^b fold"},
      {"measurement": "BMP-4 mRNA level, fold change relative to the control", "setting": "C2C12 cells; largazole 1 nM", "result": "0.91 ± 0.22", "unit": "fold"},
      {"measurement": "BMP-6 mRNA level, fold change relative to the control", "setting": "C2C12 cells; largazole 1 nM", "result": "1.69 ± 0.12^b fold"},
      {"measurement": "BMP-7 mRNA level, fold change relative to the control", "setting": "C2C12 cells; largazole 1 nM", "result": "5.05 ± 0.31^c fold"},
      {"measurement": "BMP-9 mRNA level, fold change relative to the control", "setting": "C2C12 cells; largazole 1 nM", "result": "5.18 ± 0.74^c fold"},
      {"measurement": "OPN mRNA level, fold change relative to the control", "setting": "C2C12 cells; largazole 1 nM", "result": "1.33 ± 0.19", "unit": "fold"},
      {"measurement": "RUNX2 mRNA level, fold change relative to the control", "setting": "C2C12 cells; largazole 1 nM", "result": "2.47 ± 0.39^b fold"},
      {"measurement": "ALP mRNA level, fold change relative to the control", "setting": "C2C12 cells; largazole 50 nM", "result": "324.04 ± 1.59^c fold"},
      {"measurement": "BMP-2 mRNA level, fold change relative to the control", "setting": "C2C12 cells; largazole 50 nM", "result": "6.29 ± 0.98^c fold"},
      {"measurement": "BMP-4 mRNA level, fold change relative to the control", "setting": "C2C12 cells; largazole 50 nM", "result": "2.38 ± 0.91^a fold"},
      {"measurement": "BMP-6 mRNA level, fold change relative to the control", "setting": "C2C12 cells; largazole 50 nM", "result": "7.15 ± 1.33^b fold"},
      {"measurement": "BMP-7 mRNA level, fold change relative to the control", "setting": "C2C12 cells; largazole 50 nM", "result": "17.12 ± 2.59^c fold"},
      {"measurement": "BMP-9 mRNA level, fold change relative to the control", "setting": "C2C12 cells; largazole 50 nM", "result": "12.14 ± 3.17^b fold"},
      {"measurement": "OPN mRNA level, fold change relative to the control", "setting": "C2C12 cells; largazole 50 nM", "result": "2.28 ± 0.12^b fold"},
      {"measurement": "RUNX2 mRNA level, fold change relative to the control", "setting": "C2C12 cells; largazole 50 nM", "result": "3.66 ± 1.19^a fold"},
      {"measurement": "ALP mRNA level, fold change relative to the control", "setting": "C2C12 cells; largazole 100 nM", "result": "263.33 ± 11.61^b fold"},
      {"measurement": "BMP-2 mRNA level, fold change relative to the control", "setting": "C2C12 cells; largazole 100 nM", "result": "6.34 ± 1.16^b fold"},
      {"measurement": "BMP-4 mRNA level, fold change relative to the control", "setting": "C2C12 cells; largazole 100 nM", "result": "3.48 ± 1.63", "unit": "fold"},
      {"measurement": "BMP-6 mRNA level, fold change relative to the control", "setting": "C2C12 cells; largazole 100 nM", "result": "8.37 ± 0.88^c fold"},
      {"measurement": "BMP-7 mRNA level, fold change relative to the control", "setting": "C2C12 cells; largazole 100 nM", "result": "10.72 ± 1.90^c fold"},
      {"measurement": "BMP-9 mRNA level, fold change relative to the control", "setting": "C2C12 cells; largazole 100 nM", "result": "10.18 ± 2.22^b fold"},
      {"measurement": "OPN mRNA level, fold change relative to the control", "setting": "C2C12 cells; largazole 100 nM", "result": "0.83 ± 0.04^a fold"},
      {"measurement": "RUNX2 mRNA level, fold change relative to the control", "setting": "C2C12 cells; largazole 100 nM", "result": "2.06 ± 0.00^c fold"},
      {"measurement": "increase of Runx2 mRNA level relative to the DMSO control", "setting": "C2C12 cells; largazole at 50 nM, real-time PCR", "result": 3, "unit": "fold"},
      {"measurement": "mRNA expression levels of BMPs (BMP-2, 4, 6, 7, and 9)", "setting": "C2C12 cells; real-time PCR", "result": "significantly induced"},
      {"measurement": "activity of RUNX2 (6×OSE2-luciferase activity assay)", "setting": "Runx2; FIG. 1D", "result": "strongly induced the activity of RUNX2"},
      {"measurement": "increase of Runx2 activity relative to the DMSO control", "setting": "Runx2; largazole at 50 nM, p6×OSE2-luciferase reporter", "result": 29, "unit": "fold"},
      {"measurement": "anabolic bone forming activity in vivo", "setting": "calvaria bone", "result": "exhibited anabolic bone forming activity"},
      {"measurement": "inhibition of osteoclastogenesis", "setting": "RAW264.7 cells", "result": "potential to inhibit the osteoclastogenesis"},
      {"measurement": "woven bone formation at lower (50 μM) versus higher (100 μM) concentration", "setting": "calvarial bones of mice; 50 μM compared with 100 μM, collagen sponge implant", "result": "more significant than that at the higher concentration"},
      {"measurement": "woven bone formation over the periosteum of the calvarial bones", "setting": "calvarial bones of mice; collagen sponges soaked with largazole implanted, three weeks", "result": "induced woven bone formation"}
    ]}
  ]
}
